Results: patent US5472684A, “Oral compositions for plaque and gingivitis” (Colgate Palmolive Company, priority 1993, dated 1995)
Read-outs that look alike come from different tables or passages of the source. Values belong to the compound of their own block, whether it stands above or below them.

What was measured:
Plaque [1] = assay: 4-day plaque regrowth in a clinical study in humans, plaque score; assay type: in vivo
Method: (§1) The efficacy of natural product rinse on the reduction of plaque was evaluated in a clinical study in humans. The study was randomized, blind, 3 cells cross-over design to measure the effects of each rinse on 4 day plaque growth from a zero baseline. […] On the other hand, 0.2% chlorhexidine rinse, clinically proven for plaque and gingivitis effect, inhibited 48.0% and 78.0% regrowth of plaque measured by score and area, respectively under similar conditions.

Plaque [2] = assay: 4-day plaque regrowth in a clinical study in humans, plaque area; assay type: in vivo
Method: as §1

Actinomyces viscosus = assay: MIC of natural flavoring agents vs. A. viscosus, standard serial dilution method; assay type: cell-based; details: for MIC: Actinomyces viscosus, read-out: Antibacterial Activity vs. A. viscosus MIC; for antibacterial activity against A. viscosus (in words): from MIC data of Table 1
Method: The antibacterial activities of a number of natural flavoring agents were evaluated against Actinomyces viscosus, a dental plaque bacterium, by measuring the minimum inhibitory concentration (hereinafter referred to as MIC) of the respective agents in vitro according to the standard serial dilution method delineated in N. Nabi et al., Am. J. Dent. 2: 197:206, 1989 which is incorporated herein by reference. The MIC is defined for the purpose of this invention to mean the concentration of a particular agent at which no bacterial growth was observed. The natural flavoring agents used were obtained from commercial sources available in organic or aqueous solvents. The antibacterial compound, Triclosan, was used as a positive Control. Triclosan is 2,4,4'-trichloro-2'-hydroxydiphenyl ether.

plaque and gingivitis = details: toothpaste and mouthrinse containing Triclosan, humans; cited from earlier work
[3] = tested on: bacterial plaque formation; assay: Chemostat Plaque Model in vitro (flow cell system, artificial mouth); assay type: cell-based; details: about 0.5 wt % eucalyptol or about 0.01 wt. % sage oil added to rinse (2)
Method: The effect of natural product rinse (2) to inhibit bacterial plaque formation in vitro was assessed using the Chemostat Plaque Model according to methods of A. Gaffar et al. described in Am. J. Dent., 3, p. S7-S14, 1990. This in vitro model simulates the actual saliva and tooth surface interactions with respect to the plaque formation in the mouth and assesses the interactions, at biophysical and surface chemical level, of saliva-coated bacteria to saliva-coated surfaces with a surface energy similar to dental enamel.

[4] = 4-day plaque regrowth, rinsed twice daily, fifteen volunteers
[5] = after 4 days, compared with 0.9% saline rinse, p < 0.001
[6] = in vitro, serial dilution, concentration at which no bacterial growth was observed

Compound: [H]/N=C(\N/C(=N/[H])NCCCCCCNC(=N)NC(=N)Nc1ccc(Cl)cc1)Nc1ccc(Cl)cc1 [Chlorhexidine]
Plaque Score (Plaque [1]; [4]): 0.128 +/- 0.068
Plaque Reduction % (plaque score) (Plaque [1]; [5]): 48.0%
Plaque Area (Plaque [2]; [4]): 0.069 +/- 0.055
Plaque Reduction % (plaque area) (Plaque [2]; [5]): 78.0%

Compound: C=CCc1ccc(O)c(OC)c1 [Eugenol]
MIC (Actinomyces viscosus; [6]): 25 µg/mL
antibacterial activity against A. viscosus (in words) (Actinomyces viscosus): most active

MIC (Actinomyces viscosus; [6]): 25 µg/mL
Compound: CC(C)=CCCC(C)=CCCC(C)=CCO [Farnesol]
antibacterial activity against A. viscosus (in words) (Actinomyces viscosus): excellent antibacterial activity equivalent to thymol or eugenol
antibacterial activity against A. viscosus (in words) (Actinomyces viscosus; listed as farnesol): most active

MIC (Actinomyces viscosus; [6]): 25 µg/mL
Compound: Cc1ccc(C(C)C)c(O)c1 [Thymol]
antibacterial activity against A. viscosus (in words) (Actinomyces viscosus): most active

Compound: Oc1cc(Cl)ccc1Oc1ccc(Cl)cc1Cl [Triclosan, 2,4,4'-trichloro-2'-hydroxydiphenyl ether, reference compound]
MIC (Actinomyces viscosus): 5 µg/mL
effect on plaque and gingivitis (in words) (plaque and gingivitis): reduce plaque and gingivitis

Compound: CC12CCC(CC1)C(C)(C)O2 [eucalyptol]
antiplaque activity on addition to natural product rinse (2) (in words) [3]: increases the antiplaque activity
